Among the test systems are A549 NSCLC; EKVX NSCLC; HCT-15 colon; HOP-62 NSCLC; KM12 colon; M14 melanoma; MDA-MB-231 breast; MDA-N; PC-3 prostate; UACC-257 melanoma.
Holding throughout (test): NCI tumour cell line growth inhibition, 48 h

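Protocol summary: plate cells (96-well), add compound at 5 concentrations, incubate 48 h, interpolate endpoints linearly. The concentration for full growth arrest is given as TGI.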 Some results are limits rather than exact numbers.

With `COC(=O)C1CCC(=S)N1C(=O)c1ccccc1` (centres undefined), the TGI in the assay on A549 NSCLC, in the assay on EKVX NSCLC, with HCT-15 colon, with HOP-62 NSCLC, in the assay on KM12 colon and with M14 melanoma was > 100 µM throughout. Also, the TGI in the assay with MDA-MB-231 breast, in the assay with MDA-N, with PC-3 prostate and in the assay on UACC-257 melanoma was > 100 µM in each case.

On to `CSCCC(N)C(=O)NCCNc1ccc(NCCNC(=O)C(N)CCSC)c2c1C(=O)c1ccccc1C2=O` (centres undefined), for which the TGI with A549 NSCLC worked out at 3.66 µM; in the assay on EKVX NSCLC, 9.65 µM; with HCT-15 colon it was 16.3 µM; in the assay on HOP-62 NSCLC, 5.22 µM; in the assay on KM12 colon it was 12.8 µM; in the assay on M14 melanoma it was 12 µM. Besides, the TGI in the assay on MDA-MB-231 breast came out at 2.81 µM; in the assay on MDA-N it was 4.23 µM; in the assay with PC-3 prostate it was 6.02 µM; in the assay with UACC-257 melanoma, 12.7 µM.

On to `Cc1cc(-c2nc3cc(F)ccc3s2)ccc1NC(=O)[C@@H](N)CCCCN`, for which the TGI in the assay with A549 NSCLC was determined as 3.88 µM; in the assay with EKVX NSCLC it was 16.5 µM; with HCT-15 colon, 21 µM; in the assay with HOP-62 NSCLC it was 11 µM; in the assay with KM12 colon it was 3.36 µM; with M14 melanoma, 4.86 µM. Moreover, the TGI in the assay with MDA-MB-231 breast worked out at 10.5 µM; with MDA-N it was 3.27 µM; in the assay with PC-3 prostate, 21.4 µM; with UACC-257 melanoma it was 13.3 µM.

`COc1ccc(CC(N)c2ccc(OC)cc2)cc1` (centres undefined): the TGI in the assay with A549 NSCLC, in the assay with EKVX NSCLC, in the assay on HCT-15 colon, in the assay on HOP-62 NSCLC, in the assay on KM12 colon and with M14 melanoma was > 100 µM throughout. The TGI in the assay on MDA-MB-231 breast, with MDA-N, in the assay with PC-3 prostate and in the assay with UACC-257 melanoma was > 100 µM each time.

In the case of `O=C1C[C@@H](C(=O)OCc2ccccc2)NC(=O)C[C@@H](C(=O)OCc2ccccc2)NC(=O)C[C@@H](C(=O)OCc2ccccc2)N1`, the TGI is > 100 µM with A549 NSCLC; > 100 µM in the assay on EKVX NSCLC; > 100 µM in the assay on HCT-15 colon; > 88.5 µM in the assay with HOP-62 NSCLC; > 100 µM with KM12 colon; > 100 µM with M14 melanoma. Also, the TGI with MDA-MB-231 breast was 70.9 µM; in the assay on MDA-N, > 100 µM; with PC-3 prostate, > 100 µM; with UACC-257 melanoma, > 100 µM.

Consider `CC1CCCC2(CC[N+](C)(CCC[N+](C)(C)C)CC2)C1` (centres undefined), for which the TGI in the assay with A549 NSCLC, with EKVX NSCLC, in the assay with HCT-15 colon, in the assay with HOP-62 NSCLC, in the assay on KM12 colon and with M14 melanoma was > 100 µM each time. The TGI with MDA-MB-231 breast, with MDA-N, with PC-3 prostate and in the assay on UACC-257 melanoma was > 100 µM in each case.

With `CCCC(=O)NC(Nc1ccc(S(=O)(=O)Nc2cc(C)on2)cc1)(C(=O)OCC)C(F)(F)F` (centres undefined), the TGI in the assay with A549 NSCLC, in the assay with EKVX NSCLC, with HCT-15 colon, in the assay with HOP-62 NSCLC, with KM12 colon and with M14 melanoma was > 100 µM in each case. Besides, the TGI with MDA-MB-231 breast, in the assay with MDA-N, with PC-3 prostate and in the assay on UACC-257 melanoma was > 100 µM in each case.

As for `Cc1csc(NC23CC4CC(CC(C4)C2)C3)[n+]1C(P(=O)([O-])O)P(=O)(O)O` (centres undefined), the TGI with A549 NSCLC, in the assay on EKVX NSCLC, with HCT-15 colon, with HOP-62 NSCLC, in the assay on KM12 colon and with M14 melanoma was > 100 µM each time. For the same compound, the TGI with MDA-MB-231 breast, in the assay with MDA-N, in the assay with PC-3 prostate and in the assay with UACC-257 melanoma was > 100 µM throughout.

As to `CC(=O)NCCC1CN(C(=O)/C=C/I)c2ccccc21` (centres undefined), the TGI in the assay on A549 NSCLC amounted to 33.1 µM; in the assay with EKVX NSCLC, 33.3 µM; in the assay on HCT-15 colon it was 9.66 µM; in the assay with HOP-62 NSCLC it was 27.7 µM; with KM12 colon, 2.67 µM; in the assay with M14 melanoma, 8.5 µM. The TGI with MDA-MB-231 breast stood at 5.15 µM; with MDA-N, 9.26 µM; with PC-3 prostate it was 21.1 µM; with UACC-257 melanoma, 20.4 µM.

Regarding `COC(=O)C1(Cc2ccc3c(c2)CCC3)Cc2ccccc2C1O` (centres undefined), the TGI turned out to be 49.2 µM with A549 NSCLC; 69.4 µM with EKVX NSCLC; 50.7 µM with HCT-15 colon; 46.3 µM in the assay with HOP-62 NSCLC; 47.6 µM in the assay with KM12 colon; 34.9 µM in the assay on M14 melanoma. The TGI came out at 67.4 µM in the assay on MDA-MB-231 breast, 13.5 µM in the assay with MDA-N, 29.2 µM in the assay with PC-3 prostate and 31.5 µM in the assay on UACC-257 melanoma.

With `C[C@H](NC(=O)C(Cc1ccccc1)(Cc1ccc(O)cn1)NC(=O)c1ccccc1)c1ccccc1` (some centres undefined), the TGI in the assay with A549 NSCLC was 31.6 µM; with EKVX NSCLC it was 34.2 µM; in the assay with HCT-15 colon it was 38.3 µM; with HOP-62 NSCLC it was 33.8 µM; with KM12 colon it was 49.4 µM; in the assay with M14 melanoma it was 29.4 µM. Also, the TGI stood at 29.4 µM with MDA-MB-231 breast, 30.7 µM in the assay with MDA-N, 28.7 µM with PC-3 prostate and 34.5 µM with UACC-257 melanoma.

As for `CSCSSC`, the TGI in the assay with A549 NSCLC, in the assay with EKVX NSCLC, in the assay on HCT-15 colon, in the assay on HOP-62 NSCLC, with KM12 colon and with M14 melanoma was > 100 µM each time. The TGI with MDA-MB-231 breast, with MDA-N, with PC-3 prostate and in the assay on UACC-257 melanoma was > 100 µM in each case.

Take `COc1cccc(CCN2CCN(CCCc3ccccc3)CC2)c1`: the TGI is > 100 µM with A549 NSCLC; > 100 µM in the assay on EKVX NSCLC; > 100 µM with HCT-15 colon; > 100 µM in the assay on HOP-62 NSCLC; > 100 µM in the assay with KM12 colon; 60.6 µM with M14 melanoma. For the same compound, the TGI with MDA-MB-231 breast, in the assay with MDA-N, with PC-3 prostate and in the assay on UACC-257 melanoma was > 100 µM throughout.

Turning to `C[N+](C)(C)c1ccc(C(N)C(=O)O)cc1` (centres undefined), the TGI with EKVX NSCLC, with HCT-15 colon, with HOP-62 NSCLC, with KM12 colon, with M14 melanoma and with MDA-MB-231 breast was > 100 µM in each case. In addition, the TGI in the assay on MDA-N, with PC-3 prostate and in the assay with UACC-257 melanoma was > 100 µM each time.

Values taken from PubChem BioAssay (NCI).
